Experimental data from patent publication US8399214B2 (Evonik Degussa GmbH, priority 2005, dated 2013).
Several values for one entry are separate records, joined by “and”; a condition that tells them apart may be missing. Identical values can stand only once. Like-named read-outs stand apart in the source and are kept apart here.

Experiments:
[1] = system: C. glutamicum OM101 (ΔmetF, ΔmetB); conditions: DMDS 0.2%, XAD4, 60 hours at 30° C.
Method: (§7) A test tube experiment was performed with M2014 derivatives that contain different combinations of deletions of metY, metB, and metF. […] The inoculum was approximately 5×10^3 cells per tube. Cells were grown at 30° C. in a platform shaker for 60 hours, and cell densities were measured at OD600.

[2] = system: C. glutamicum OM63 (ΔmetF)
Method: To this end, test tube experiments using 5 ml of medium were performed on OM63 and M2014.
(§1) To each test tube 100 μl of a sterile suspension of XAD4 in water (50% v/v) was added.

C. glutamicum OM246C = assay: Shake flask study in molasses medium with XAD4, amino acid production with DMDS; format: cell-based; conditions: 80 μl DMDS (0.4% v/v), XAD4, 30° C.
Method: (§2) Samples were taken from the medium and assayed for amino acid content. […] (AGILENT). A pre-column derivatization of the sample with ortho-phthalaldehyde allowed the quantification of produced amino acids after separation on a Hypersil AA-column (AGILENT).
(§3) A shake flask experiment was performed where OM246C was compared to M2014. […] Thus, the production of methionine occurs from the conversion of O-acetyl-homoserine directly to methionine, bypassing homocysteine.

C. glutamicum M2014 [3] = assay: as above; format: cell-based; conditions: strain 2014, 80 μl DMDS (0.4% v/v), XAD4, 30° C.
Method: as §2, §3

C. glutamicum M2014 [4] = assay: Test tube growth in methionine-free medium with canola oil as DMDS delivery system; format: cell-based; conditions: MF + Canola Oil + 0.2% DMDS, 24 hours at 30° C.
Text: (§4) Other possible delivery systems include synthetic oils, organic solvents, chloro-carbons, fluoro-carbons, or chloro-fluoro-carbons.

[5] = system: C. glutamicum OM63 (ΔmetF); format: cell-based; conditions: 36 hours at 30° C.
Text: (§5) M2014 was transformed with plasmid pOM86 (FIG. 9) (SEQ ID NO:8) to yield a “Campbell in” strain. The “Campbell in” strain was then “Cambelled out” to yield a “Campbell out” strain named OM63.

[6] = system: C. glutamicum OM174 (ΔmetF, ΔmetB, ΔmetY); conditions: DMDS 0.2%, XAD4, 60 hours at 30° C.
Method: as §7

[7] = system: E. coli RY714B (metE::Tn10, ΔmetH); assay: Growth on methionine free agar with DMDS in a centre well; format: cell-based; conditions: 50 microliters DMDS in well, 30° C.
Method: (§6) The selection was for resistance to kanamycin sulfate at 25 mg/L on rich medium […] agar).

[8] = system: E. coli CGSC 3592 (metF64); assay: as above; format: cell-based; conditions: 50 microliters DMDS in well, 30° C.
Method: as §6

[9] = system: C. glutamicum OM101C (ΔmetF, ΔmetB); format: cell-based; conditions: XAD4, 24 hours at 30° C.
Method: as §1

[10] = system: C. glutamicum OM246C (ΔmetE, ΔmetH); format: cell-based; conditions: XAD4, 24 hours at 30° C.
Method: as §1

[11] = system: C. glutamicum OM158 (ΔmetF, ΔmetY); conditions: DMDS 0.2%, XAD4, 60 hours at 30° C.
Method: as §7

OM101 (ΔmetB,ΔmetF) = assay: Lawn growth on methionine-free agar plates with liquid or gaseous DMDS; format: cell-based, C. glutamicum; conditions: for killing zone: 48-60 hours
Method: Control plates received the lawn of cells, but no DMDS. The plates were placed together in a sealed polypropylene plastic box that was slightly bigger than the stack of plates and incubated at 30° C. for 48-60 hours. […] Normally, when a required nutrient is placed in the middle of a lawn that is auxotrophic for the nutrient, a gradient of growth is seen, with the most rapid growth occurring closest to the nutrient.
The plates were incubated at 30° C. enclosed in an airtight plastic box. […] This could be accomplished by evaporating or boiling DMDS and pumping the DMDS vapor into the fermentation vessel, or by bubbling air or oxygen through liquid DMDS on its route to the fermentation vessel.

C. glutamicum M2014 [12] = assay: Test tube growth in methionine-free medium with mineral oil as DMDS delivery system; conditions: for Optical densities at 600 nm: 24 hours at 30° C.
Text: as §4

[13] = system: C. glutamicum M2014 (parent); assay: Test tube growth in methionine-free medium, DMDS added directly; conditions: for Optical densities at 600 nm: M2014, 36 hours at 30° C.
Text: as §5

[14] = system: C. glutamicum OM246C (ΔmetH, ΔmetE); conditions: for Optical densities at 600 nm: OM246C, 24 hours at 30° C.
Text: as §4

CSSC [DMDS, dimethyl disulfide]
OD600 [1]: 2.4 and 1.8
Optical densities at 600 nm ([2]; DMDS 0.1%, XAD4, 24 hours at 30° C.): 3.0 and 3.3
Optical densities at 600 nm ([2]; DMDS 0.1%, XAD4, 42 hours at 30° C.): 6.3
Optical densities at 600 nm ([2]; DMDS 0.2%, XAD4, 24 hours at 30° C.): 1.7 and 3.4
Optical densities at 600 nm ([2]; DMDS 0.2%, XAD4, 42 hours at 30° C.): 6.5
OD600 ([2]; DMDS 0.2%, XAD4, 60 hours at 30° C.): 1.2 and 1.3
Optical densities at 600 nm ([2]; DMDS 0.3%, XAD4, 24 hours at 30° C.): 3.9 and 2.1
Optical densities at 600 nm ([2]; DMDS 0.3%, XAD4, 42 hours at 30° C.): 4.9
Optical densities at 600 nm ([2]; DMDS 0.4%, XAD4, 24 hours at 30° C.): 1.5 and 1.6
Optical densities at 600 nm ([2]; DMDS 0.4%, XAD4, 42 hours at 30° C.): 3.6
Optical densities at 600 nm ([2]; DMDS 0.5%, XAD4, 24 hours at 30° C.): 0.1
Optical densities at 600 nm ([2]; DMDS 0.5%, XAD4, 42 hours at 30° C.): 1.6
maximum amount of DMDS that allowed cell growth ([2]; DMDS with Amberlite XAD4): 0.4%
Gly + Hse (C. glutamicum OM246C): 1.7 g/L and 1.3 g/L
Ile (C. glutamicum OM246C): 0.0 g/L
Lys (C. glutamicum OM246C): 3.2 g/L and 3.4 g/L
OD600 (C. glutamicum OM246C): 32 and 35
O—Ac-hse (C. glutamicum OM246C): 4.6 g/L and 4.3 g/L
Gly + Hse (C. glutamicum M2014 [3]): 1.0 g/L and 1.4 g/L
Ile (C. glutamicum M2014 [3]): 0.0 g/L
Lys (C. glutamicum M2014 [3]): 2.5 g/L
OD600 (C. glutamicum M2014 [3]): 38 and 30
O—Ac-hse (C. glutamicum M2014 [3]): 4.3 g/L and 3.6 g/L
Optical densities at 600 nm (C. glutamicum M2014 [4]): 1.5 and 1.4
Optical densities at 600 nm ([5]; MF + 0.02% DMDS): 5.4
Optical densities at 600 nm ([5]; MF + 0.04% DMDS): 5.9
Optical densities at 600 nm ([5]; MF + 0.06% DMDS): 5.2
Optical densities at 600 nm ([5]; MF + 0.08% DMDS): 0.2
Optical densities at 600 nm ([5]; MF + 0.1% DMDS): 0.0
OD600 [6]: 0.0
growth on methionine free agar with DMDS ([7]; RY714B transformed with empty vector pCLIK): neither strain transformed with empty vector pCLIK grew
growth on methionine free agar with DMDS ([7]; RY714B transformed with pH309 or pH357 (metY)): grew on the plates
growth on methionine free agar with DMDS ([8]; CGSC 3592 transformed with empty vector pCLIK): neither strain transformed with empty vector pCLIK grew
growth on methionine free agar with DMDS ([8]; CGSC 3592 transformed with pH309 or pH357 (metY)): grew on the plates
Optical densities at 600 nm ([9]; DMDS 0.1%): 2.5 and 2.7
Optical densities at 600 nm ([9]; DMDS 0.2%): 3.1 and 3.9
Optical densities at 600 nm ([9]; DMDS 0.3%): 1.6 and 0.8
Optical densities at 600 nm ([9]; DMDS 0.4%): 0.05 and 0.03
Optical densities at 600 nm ([9]; DMDS 0.5%): 0.02 and 0.01
Optical densities at 600 nm ([10]; DMDS 0.1%): 4.3 and 4.5
Optical densities at 600 nm ([10]; DMDS 0.2%): 4.2 and 3.8
Optical densities at 600 nm ([10]; DMDS 0.3%): 3.3 and 3.6
Optical densities at 600 nm ([10]; DMDS 0.4%): 3.6 and 3.2
Optical densities at 600 nm ([10]; DMDS 0.5%): 3.1 and 2.4
OD600 [11]: 0.0
growth of OM101 lawn (OM101 (ΔmetB,ΔmetF); 50 μl liquid DMDS in polypropylene cap, reaches cells only through gaseous state, 30° C., two days): complete bacterial lawn
killing zone (OM101 (ΔmetB,ΔmetF); 50 μl liquid DMDS placed into a well in the agar, 30° C.): no killing zone
killing zone (OM101 (ΔmetB,ΔmetF); 50 μl liquid DMDS spotted directly on the lawn, 30° C.): approximately 30 mm
toxicity of DMDS in the gas state to OM101 (OM101 (ΔmetB,ΔmetF); gas state): not toxic
maximum amount of DMDS that allowed cell growth (C. glutamicum M2014 [12]; DMDS in mineral oil): 0.8%
Optical densities at 600 nm (C. glutamicum M2014 [12]; MF + Mineral Oil + 0.2% DMDS): 1.4 and 1.2
Optical densities at 600 nm (C. glutamicum M2014 [12]; MF + Mineral Oil + 0.4% DMDS): 1.5 and 1.3
Optical densities at 600 nm (C. glutamicum M2014 [12]; MF + Mineral Oil + 0.8% DMDS): 1.4 and 1.7
Optical densities at 600 nm (C. glutamicum M2014 [12]; MF + Mineral Oil + 1.2% DMDS): 0.0
Optical densities at 600 nm ([13]; MF + 0.02% DMDS): 5.5
Optical densities at 600 nm ([13]; MF + 0.04% DMDS): 5.3
Optical densities at 600 nm ([13]; MF + 0.06% DMDS): 6.6
Optical densities at 600 nm ([13]; MF + 0.08% DMDS): 0.0
Optical densities at 600 nm ([13]; MF + 0.1% DMDS): 0.0
amount of DMDS tolerated by the cells ([13]; added directly to liquid cultures): less than 0.06%
amount at which DMDS is toxic ([13]; added directly to liquid cultures of C. glutamicum): greater than 0.06%
maximum amount of DMDS that allowed cell growth ([14]; DMDS in mineral oil, strain printed as OM63): 0.4%
Optical densities at 600 nm ([14]; MF + Mineral Oil + 0.2% DMDS): 1.1 and 1.6
Optical densities at 600 nm ([14]; MF + Mineral Oil + 0.4% DMDS): 1.2 and 1.5
Optical densities at 600 nm ([14]; MF + Mineral Oil + 0.8% DMDS): 0.0
Optical densities at 600 nm ([14]; MF + Mineral Oil + 1.2% DMDS): 0.0
